Data: PMC10279527, “Structural basis of metabolite transport by the chloroplast outer envelope channel OEP21” (Nature Structural & Molecular Biology, 2023)
Several values for one entry are separate records, joined by “and”; a condition that tells them apart may be missing. Identical values can stand only once. Like-named read-outs stand apart in the source and are kept apart here.

Key:
OEP21 wt [1] = biological target: T1, OEP21 wt (Pisum sativum, UniProt Q9SM57); experiment: NMR titrations (2D-[15N,1H]-TROSY) of OEP21 with metabolites; assay type: binding, garden pea
T1 construct: made in house

OEP21 wt [2] = biological target: T1, OEP21 wt; experiment: FP competition with preformed MANT-ATP/OEP21-WT complex; assay type: binding, garden pea
Protocol: (§1) FP assays were performed on a spectrofluorometer FP-8300 (Jasco) equipped with a water bath cooling system MCM-100 (Jasco). […] A buffer containing no EDTA was used when MgCl2 was present. […] KD values were derived by fitting the data to a one-site binding model. […] All FP experiments were performed as triplicates.

OEP21ΔL5 = biological target: T2, OEP21ΔL5 (Pisum sativum, UniProt Q9SM57, DEL70-80); experiment: FP competition with preformed MANT-ATP/OEP21ΔL5 complex; assay type: binding, garden pea
T2 construct: made in house; host or cells: Escherichia coli BL21(DE3) (described for OEP21)
Protocol: as §1

[3] = ITC of ATP, GAP or phosphate with magnesium; assay type: binding; details: 10 mM HEPES pH7.0, 20 mM NaCl, read-out: KD for Mg^2+
Protocol: ITC experiments were performed with a MicroCal PEAQ-ITC instrument (Malvern Panalytical) at 25 °C in 10 mM HEPES pH 7.0, 20 mM NaCl, 0.5 mM EDTA, 1 mM DTT, 50 mM LDAO. […] Curve fitting and data analysis were done with the Malvern PEAQ-ITC software.
(a) (left) 2D-[^15N,^1H]-TROSY NMR spectra of 400 µM ^2H,^15N-labeled OmpX in LDAO micelles in 20 mM sodium phosphate, pH6.0, 50 mM NaCl, 0.5 mM EDTA and the indicated concentrations of D-GAP at 30 °C and 1.2 GHz magnetic field. (right) 2D-projections along the ^1H dimension of the 2D-spectra shown on (left). […] (right) Relative NMR peak intensities derived from the data in (left) and (middle). Buffer: 10 mM Na-phosphate pH7.0, 20 mM NaCl, 7% (v/v) D2O. […] (right) 150 mM MgCl2 was titrated into 15 mM potassium phosphate (Pi). Buffer conditions for all experiments were: 10 mM HEPES pH7.0, 20 mM NaCl.

OEP21 [4] = biological target: T3, OEP21 (Pisum sativum, UniProt Q9SM57); details: Cu^2+ oxidation then BS^3; 5 mM metabolite
OEP21 [5] = biological target: T3, OEP21; experiment: Trypsin cleavage of recombinant OEP21 in liposomes; set-up: made in house; species or system garden pea; details: 10 µM OEP21 in liposomes; 5 mM metabolite
Protocol: Sample aliquots were quenched by addition of 1 mM PMSF at the indicated time points and were analyzed by SDS–PAGE.

OEP21 wt [6] = biological target: T1, OEP21 wt; experiment: Fluorescence polarization (FP) binding of MANT-ATP (or MANT-GMPPNP) to OEP21-WT, also at varied NaCl and MgCl2; set-up: species or system garden pea
Protocol: as §1

In the case of `O=C[C@H](O)COP(=O)(O)O` [GAP, D-glyceraldehyde-3-phosphate], the Kd (OEP21 wt [1]; KD GAP - Loop5, Loop5, individual KDs) is reported as 2700 µM and 4360 µM and 2480 µM, the Kd (OEP21 wt [1]; KD GAP - Loop5, Mean, Loop5, mean) is reported as 3180 µM and the Kd (OEP21 wt [1]; KD, NMR, Fig. 3b) is reported as roughly 150 µM. For the same compound, the Kd (OEP21 wt [1]; KDs GAP+Mg, Mean, with Mg, mean) was 709 µM, the Kd (OEP21 wt [1]; KDs GAP+Mg, with Mg, individual KDs) was 310 µM and 690 µM and 450 µM and 960 µM and 920 µM and 1170 µM and 470 µM and 980 µM and 750 µM and 710 µM and 670 µM and the Kd (OEP21 wt [1]; KDs OEP21wt + GAP, Mean, OEP21wt, mean, unit inferred) was 152 µM. The Kd (OEP21 wt [1]; KDs OEP21wt + GAP, OEP21wt, individual KDs, unit inferred) was 154 µM and 180 µM and 186 µM and 146 µM and 177 µM and 143 µM and 138 µM and 137 µM and 127 µM and 149 µM, the “effect of Mg^2+ on binding affinity (in words)” value (OEP21 wt [1]; NMR, Fig. 3h, addition of Mg^2+) was “decreased the binding affinity to a similar extent” and the Kd (OEP21 wt [1]; affinity of residues in L5, NMR, Fig. 3h) was roughly 3000 µM. The “fold increase in Kd” value (OEP21 wt [1]; individual determinations KD1-KD12, relative to ATP pH7) was 18.8725 and 22.0588 and 22.7941 and 17.8922 and 21.6912 and 17.5245 and 16.9118 and 16.7892 and 15.5637 and 18.2598, the “fold increase in Kd, mean values” (OEP21 wt [1]; mean, relative to ATP pH7) was 18.7 and the IC50 (OEP21 wt [2]; IC50 (dissociation of MANT-ATP), OEP21-WT, 1 µM MANT-ATP, 1 µM protein) was roughly 10000 µM. For the same compound, the IC50 (OEP21 wt [2]; IC50, wt, individual determinations) was 11000 µM and 10700 µM, the IC50 (OEP21 wt [2]; mean IC50, wt) was 10900 µM and the IC50 (OEP21ΔL5; IC50 (dissociation of MANT-ATP), OEP21ΔL5, 1 µM MANT-ATP, 1 µM protein) was roughly 26000 µM. The IC50 (OEP21ΔL5; dL5, individual determinations, read-out: IC50) was 31100 µM and 20400 µM, the IC50 (OEP21ΔL5; dL5, read-out: mean IC50) was 25700 µM and the Kd [3] was ~9000 µM and 9000 µM. The “effect on enhanced oligomerization of Cys109-oxidized OEP21 (in words)” value (OEP21 [4]) was “reduced this process” and the “effect on trypsin digestion of L5 (in words)” value (OEP21 [5]) was “slightly protected L5 from proteolytic digestion”.
With “2′-(or-3′)-O-(N-methylanthraniloyl) adenosine 5′-triphosphate [Mant-ATP]” the Kd (OEP21 wt [6]; MgCl2 0 mM, individual determinations, read-out: KD1-KD3) was 184 nM and 169 nM and 193 nM, the Kd (OEP21 wt [6]; MgCl2 0 mM, read-out: mean KD) was 182 nM and the “rel KD1-KD3” value (OEP21 wt [6]; MgCl2 0 mM, relative to mean KD at 0 mM MgCl2) was 1.011 and 0.9286 and 1.06. The Kd (OEP21 wt [6]; MgCl2 1 mM, individual determinations, read-out: KD1-KD3) was 442 nM and 659 nM and 1020 nM, the Kd (OEP21 wt [6]; MgCl2 1 mM, read-out: mean KD) was 706 nM and the Kd (OEP21 wt [6]; MgCl2 10 mM, individual determinations, read-out: KD1-KD3) was 1170 nM and 2680 nM and 2400 nM. The Kd (OEP21 wt [6]; MgCl2 10 mM, read-out: mean KD) was 2080 nM, the Kd (OEP21 wt [6]; MgCl2 50 mM, individual determinations, read-out: KD1-KD3) was 6430 nM and 8880 nM and 8630 nM and the Kd (OEP21 wt [6]; MgCl2 50 mM, read-out: mean KD) was 7980 nM. The “rel KD1-KD3” value (OEP21 wt [6]; MgCl2 50 mM, relative to mean KD at 0 mM MgCl2) was 35.3077 and 48.8077 and 47.4286, the Kd (OEP21 wt [6]; NaCl 0 M, individual determinations, nM printed only in the MgCl2 head (r11) of this sheet, read-out: KD1-KD3) was 184 nM and 169 nM and 193 nM and the Kd (OEP21 wt [6]; NaCl 0 M, read-out: mean KD) was 182 nM. The “rel KD1-KD3” value (OEP21 wt [6]; NaCl 0 M, relative to mean KD at 0 M NaCl) was 1.011 and 0.9286 and 1.06, the Kd (OEP21 wt [6]; NaCl 0.5 M, individual determinations, nM, read-out: KD1-KD3) was 241 nM and 192 nM and 264 nM and the Kd (OEP21 wt [6]; NaCl 0.5 M, read-out: mean KD) was 232 nM. The “rel KD1-KD3” value (OEP21 wt [6]; NaCl 0.5 M, relative to mean KD at 0 M NaCl) was 1.324 and 1.055 and 1.451, the Kd (OEP21 wt [6]; NaCl 1 M, individual determinations, nM, read-out: KD1-KD3) was 2600 nM and 2460 nM and 3130 nM and the Kd (OEP21 wt [6]; NaCl 1 M, read-out: mean KD) was 2730 nM. For the same compound, the “rel KD1-KD3” value (OEP21 wt [6]; NaCl 1 M, relative to mean KD at 0 M NaCl) was 14.2912 and 13.5385 and 17.1923, the Kd (OEP21 wt [6]; NaCl 2 M, individual determinations, nM, read-out: KD1-KD3) was 18.4 µM and 21.4 µM (2×) and the Kd (OEP21 wt [6]; NaCl 2 M, read-out: mean KD) was 20400 nM. For the same compound, the “rel KD1-KD3” value (OEP21 wt [6]; NaCl 2 M, relative to mean KD at 0 M NaCl) was 101.319 and 117.56 and 117.418, the Kd (OEP21 wt [6]; OEP21 wt, individual determinations, unit inferred, read-out: KD1-KD3) was 184 nM and 169 nM and 193 nM and the “rel KD1-KD3” value (OEP21 wt [6]; OEP21 wt, relative to mean KD of wt) was 1.011 and 0.9286 and 1.06. For the same compound, the Kd (OEP21 wt [6]; OEP21 wt, unit inferred, read-out: mean KD) was 182 nM.
